Values belong to the compound of their own block, whether it stands above or below them.
Test system: 648629-189-R-J1-PDC complex spheroids viability
Experiment: Anticancer human tumor 648629-189-R-J1-PDC patient-derived bladder carcinoma cell line growth inhibition [CLK]
Details: for IC50: curve of first compound; for viability, T/C: stronger effect = lower value
Procedure, shortened: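 Patient-derived tumor cells grown as complex spheroids with HUVEC endothelial cells and mesenchymal stem cells, treated with drug combinations. Concentrations descend in half-log steps from near clinical Cmax, or from 10 microM if Cmax unknown.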

[1] = second compound 0.0316 µM, first compound 0.0316 µM
[2] = second compound 0.0316 µM, first compound 0.1 µM
[3] = second compound 0.0316 µM, first compound 0.316 µM
[4] = second compound 0.0316 µM, first compound 1 µM
[5] = second compound 0.0316 µM, first compound 3.16 µM
[6] = second compound 0.0316 µM, first compound 10 µM
[7] = second compound 0.1 µM, first compound 0.0316 µM
[8] = second compound 0.1 µM, first compound 0.1 µM
[9] = second compound 0.1 µM, first compound 0.316 µM
[10] = second compound 0.1 µM, first compound 1 µM
[11] = second compound 0.1 µM, first compound 3.16 µM
[12] = second compound 0.1 µM, first compound 10 µM
[13] = second compound 0.316 µM, first compound 0.0316 µM
[14] = second compound 0.316 µM, first compound 0.1 µM
[15] = second compound 0.316 µM, first compound 0.316 µM
[16] = second compound 0.316 µM, first compound 1 µM
[17] = second compound 0.316 µM, first compound 3.16 µM
[18] = second compound 0.316 µM, first compound 10 µM
[19] = second compound 1 µM, first compound 0.0316 µM
[20] = second compound 1 µM, first compound 0.1 µM
[21] = second compound 1 µM, first compound 0.316 µM
[22] = second compound 1 µM, first compound 1 µM
[23] = second compound 1 µM, first compound 3.16 µM
[24] = second compound 1 µM, first compound 10 µM
[25] = second compound 3.16 µM, first compound 0.0316 µM
[26] = second compound 3.16 µM, first compound 0.1 µM
[27] = second compound 3.16 µM, first compound 0.316 µM
[28] = second compound 3.16 µM, first compound 1 µM
[29] = second compound 3.16 µM, first compound 3.16 µM
[30] = second compound 3.16 µM, first compound 10 µM
[31] = second compound 10 µM, first compound 0.0316 µM
[32] = second compound 10 µM, first compound 0.1 µM
[33] = second compound 10 µM, first compound 0.316 µM
[34] = second compound 10 µM, first compound 1 µM
[35] = second compound 10 µM, first compound 3.16 µM
[36] = second compound 10 µM, first compound 10 µM
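Throughout, for viability, T/C: drug exposure lasted seven days before viability readout; 100% = DMSO vehicle control wells.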

Structure (SMILES): COc1ccc([C@@H](O)c2cc(-c3ncnc4cc(N5CCOCC5)ccc34)c(F)cc2Cl)nn1 + CN1CCN(c2cc(C(=O)Nc3cc4cc(-c5cnn(C)c5)ccc4cn3)ccn2)CC1
IC50 (second compound 0.0316 µM): 7780 nM | IC50 (second compound 0.1 µM): 8170 nM | IC50 (second compound 0.316 µM): < 31.6 nM | IC50 (second compound 1 µM): < 31.6 nM | IC50 (second compound 3.16 µM): < 31.6 nM | IC50 (second compound 10 µM): < 31.6 nM | viability, T/C [1]: 122% | viability, T/C [2]: 107% | viability, T/C [3]: 101% | viability, T/C [4]: 95.2% | viability, T/C [5]: 80% | viability, T/C [6]: 41.2% | viability, T/C [7]: 98% | viability, T/C [8]: 89% | viability, T/C [9]: 102% | viability, T/C [10]: 88.9% | viability, T/C [11]: 80.3% | viability, T/C [12]: 43.4% | viability, T/C [13]: 23% | viability, T/C [14]: 26% | viability, T/C [15]: 32.9% | viability, T/C [16]: 29.2% | viability, T/C [17]: 26.8% | viability, T/C [18]: 19.9% | viability, T/C [19]: 0.13% | viability, T/C [20]: 0.23% | viability, T/C [21]: 0.79% | viability, T/C [22]: 0.13% | viability, T/C [23]: 0.57% | viability, T/C [24]: 0.16% | viability, T/C [25]: 0.06% | viability, T/C [26]: 0.6% | viability, T/C [27]: 0.1% | viability, T/C [28]: 0.08% | viability, T/C [29]: 0.27% | viability, T/C [30]: 1.67% | viability, T/C [31]: 0.07% | viability, T/C [32]: 0.13% | viability, T/C [33]: 0.14% | viability, T/C [34]: 0.13% | viability, T/C [35]: 0.92% | viability, T/C [36]: 0.65%

Structure (SMILES): COc1cccc2c1C(=O)c1c(O)c3c(c(O)c1C2=O)CC(O)(C(=O)CO)CC3OC1CC(N)C(O)C(C)O1 (stereo not given) + CN1CCN(c2cc(C(=O)Nc3cc4cc(-c5cnn(C)c5)ccc4cn3)ccn2)CC1
IC50 (second compound 0.0316 µM): < 31.6 nM | IC50 (second compound 0.1 µM): < 31.6 nM | IC50 (second compound 0.316 µM): < 31.6 nM | IC50 (second compound 1 µM): < 31.6 nM | IC50 (second compound 3.16 µM): < 31.6 nM | IC50 (second compound 10 µM): < 31.6 nM | viability, T/C [1]: 22.1% | viability, T/C [2]: 17.5% | viability, T/C [3]: 7.83% | viability, T/C [4]: 0.53% | viability, T/C [5]: 0.16% | viability, T/C [6]: 1.13% | viability, T/C [7]: 16.5% | viability, T/C [8]: 14.2% | viability, T/C [9]: 5% | viability, T/C [10]: 0.45% | viability, T/C [11]: 0.14% | viability, T/C [12]: 0.19% | viability, T/C [13]: 16.5% | viability, T/C [14]: 13.5% | viability, T/C [15]: 4.02% | viability, T/C [16]: 0.15% | viability, T/C [17]: 0.1% | viability, T/C [18]: 0.12% | viability, T/C [19]: 0.16% | viability, T/C [20]: 0.14% | viability, T/C [21]: 0.14% | viability, T/C [22]: 0.08% | viability, T/C [23]: 0.11% | viability, T/C [24]: 0.08% | viability, T/C [25]: 0.06% | viability, T/C [26]: 0.1% | viability, T/C [27]: 0.09% | viability, T/C [28]: 0.07% | viability, T/C [29]: 0.09% | viability, T/C [30]: 0.08% | viability, T/C [31]: 0.05% | viability, T/C [32]: 0.61% | viability, T/C [33]: 0.11% | viability, T/C [34]: 0.12% | viability, T/C [35]: 0.11% | viability, T/C [36]: 0.1%

IC50 (second compound 0.0316 µM): > 10000 nM | IC50 (second compound 0.1 µM): > 10000 nM | IC50 (second compound 0.316 µM): < 31.6 nM | IC50 (second compound 1 µM): < 31.6 nM | IC50 (second compound 3.16 µM): < 31.6 nM | IC50 (second compound 10 µM): < 31.6 nM
Structure (SMILES): C=CC(=O)N1CCN(c2nc(=O)n(-c3c(C)ccnc3C(C)C)c3nc(-c4c(O)cccc4F)c(F)cc23)C(C)C1 (stereo not given) + CNC(=O)c1ccc(Nc2nc(OC3CCCC3)c3c(-c4ccc5nc(C)oc5c4)c[nH]c3n2)c(OC)c1
viability, T/C [1]: 120% | viability, T/C [2]: 110% | viability, T/C [3]: 115% | viability, T/C [4]: 108% | viability, T/C [5]: 115% | viability, T/C [6]: 110% | viability, T/C [7]: 91.9% | viability, T/C [8]: 94.6% | viability, T/C [9]: 90.1% | viability, T/C [10]: 87.9% | viability, T/C [11]: 93.5% | viability, T/C [12]: 82.5% | viability, T/C [13]: 27% | viability, T/C [14]: 24.8% | viability, T/C [15]: 29.8% | viability, T/C [16]: 39.2% | viability, T/C [17]: 42.6% | viability, T/C [18]: 66.2% | viability, T/C [19]: 23.5% | viability, T/C [20]: 26.6% | viability, T/C [21]: 23.5% | viability, T/C [22]: 24.2% | viability, T/C [23]: 26.9% | viability, T/C [24]: 46.2% | viability, T/C [25]: 17.9% | viability, T/C [26]: 22.7% | viability, T/C [27]: 20.4% | viability, T/C [28]: 22.6% | viability, T/C [29]: 27.7% | viability, T/C [30]: 31.8% | viability, T/C [31]: 19.7% | viability, T/C [32]: 20.5% | viability, T/C [33]: 20.3% | viability, T/C [34]: 27.3% | viability, T/C [35]: 33.2% | viability, T/C [36]: 28.5%

IC50 (second compound 0.0316 µM): 6250 nM | IC50 (second compound 0.1 µM): 5910 nM | IC50 (second compound 0.316 µM): < 31.6 nM | IC50 (second compound 1 µM): < 31.6 nM | IC50 (second compound 3.16 µM): < 31.6 nM | IC50 (second compound 10 µM): < 31.6 nM
Structure (SMILES): CCCS(=O)(=O)Nc1ccc(F)c(C(=O)c2c[nH]c3ncc(-c4ccc(Cl)cc4)cc23)c1F + CNC(=O)c1ccc(Nc2nc(OC3CCCC3)c3c(-c4ccc5nc(C)oc5c4)c[nH]c3n2)c(OC)c1
viability, T/C [1]: 117% | viability, T/C [2]: 104% | viability, T/C [3]: 111% | viability, T/C [4]: 89.9% | viability, T/C [5]: 98.7% | viability, T/C [6]: 18.2% | viability, T/C [7]: 75.2% | viability, T/C [8]: 83.9% | viability, T/C [9]: 94.8% | viability, T/C [10]: 94.5% | viability, T/C [11]: 105% | viability, T/C [12]: 15.8% | viability, T/C [13]: 27.9% | viability, T/C [14]: 24.1% | viability, T/C [15]: 33.6% | viability, T/C [16]: 31.2% | viability, T/C [17]: 27.6% | viability, T/C [18]: 7.72% | viability, T/C [19]: 19.7% | viability, T/C [20]: 20.6% | viability, T/C [21]: 23.2% | viability, T/C [22]: 17.9% | viability, T/C [23]: 21% | viability, T/C [24]: 9.33% | viability, T/C [25]: 16.6% | viability, T/C [26]: 21.2% | viability, T/C [27]: 19.1% | viability, T/C [28]: 20.2% | viability, T/C [29]: 20.9% | viability, T/C [30]: 11.3% | viability, T/C [31]: 20.6% | viability, T/C [32]: 21% | viability, T/C [33]: 19.1% | viability, T/C [34]: 18.9% | viability, T/C [35]: 18.7% | viability, T/C [36]: 8.45%

IC50 (second compound 0.0316 µM): 1790 nM | IC50 (second compound 0.1 µM): 1840 nM | IC50 (second compound 0.316 µM): < 31.6 nM | IC50 (second compound 1 µM): < 31.6 nM | IC50 (second compound 3.16 µM): < 31.6 nM | IC50 (second compound 10 µM): < 31.6 nM
Structure (SMILES): COC1C=CCC(C)C(C)S(=O)(=O)NC(=O)c2ccc3c(c2)N(CC2CCC21)CC1(CCCc2cc(Cl)ccc21)CO3 (stereo not given) + CNC(=O)c1ccc(Nc2nc(OC3CCCC3)c3c(-c4ccc5nc(C)oc5c4)c[nH]c3n2)c(OC)c1
viability, T/C [1]: 107% | viability, T/C [2]: 89% | viability, T/C [3]: 91.6% | viability, T/C [4]: 80.7% | viability, T/C [5]: 20.1% | viability, T/C [6]: 4.12% | viability, T/C [7]: 82.8% | viability, T/C [8]: 97.5% | viability, T/C [9]: 83.8% | viability, T/C [10]: 88.5% | viability, T/C [11]: 16.3% | viability, T/C [12]: 4.69% | viability, T/C [13]: 27.2% | viability, T/C [14]: 23.6% | viability, T/C [15]: 24.2% | viability, T/C [16]: 14% | viability, T/C [17]: 8.44% | viability, T/C [18]: 2.86% | viability, T/C [19]: 19.5% | viability, T/C [20]: 20.7% | viability, T/C [21]: 16.3% | viability, T/C [22]: 10.1% | viability, T/C [23]: 6.11% | viability, T/C [24]: 3.77% | viability, T/C [25]: 21.5% | viability, T/C [26]: 18.3% | viability, T/C [27]: 16.7% | viability, T/C [28]: 10.5% | viability, T/C [29]: 6.62% | viability, T/C [30]: 3.31% | viability, T/C [31]: 17.1% | viability, T/C [32]: 16.5% | viability, T/C [33]: 15.2% | viability, T/C [34]: 11.4% | viability, T/C [35]: 6.23% | viability, T/C [36]: 3.81%
